# Assays:
# [1] = tested on: THP1 cells; assay: MTS cell viability assay; format: cell-based; details: THP1, 72 h
# Method: (§1) Multiple leukemic and solid tumor cancer cell lines with high or low/no SALL4 expression (FIG. 10A) were chosen to test the biological effect(s) of the wild type peptide. Wild type or scrambled peptide was delivered into tumor cells at various concentrations, and their effects on cells were evaluated 72 hours post-treatment by the MTS cell viability assay. […] The effect of wild type peptide is SALL4-specific, as it had no effect on KBM5, an AML cell line with undetectable endogenous SALL4 expression. We were surprised to see that the wild type peptide had no effect on a high SALL4-expressing endometrioid cancer cell line, AN3CA. This prompted checking whether PTEN, a gene repressed by SALL4 through its interaction with NuRD 27, was present in this cell line. According to the model herein, the function of wild type peptide requires both the expression of SALL4 and intact SALL4 downstream target genes, such as PTEN. In tumor cells with PTEN deletion, even though wild type peptide could compete with endogenous SALL4 in interacting with the HDAC complex, an anti-proliferative effect might not be observed. Therefore, expression of PTEN was evaluated in AN3CA cells along with other cell lines. While PTEN protein was present in all the other cell lines, it was absent in AN3CA cells (FIG. 10C), with reported deletion mutation of the gene in this cell line 40,41. […] Furthermore, the anti-proliferative effect also required certain downstream targets, such as PTEN.
# (§2) To further test whether the effect of wild type peptide on tumor cells is related to PTEN, a PTEN inhibitor (SF1670) was used (Li et al., Blood, 117:6702-6713). […] As a control for the specificity of SALL4, KBM5, a non-SALL4-expressing cell line was also treated with PTEN inhibitor.
# [2] = tested on: KBM5 cells; assay: MTS cell viability assay; format: cell-based; details: KBM5 (no SALL4), 72 h
# Method: as §1, §2
# [3] = tested on: SALL4 interaction with HDAC1; assay: Co-immunoprecipitation of endogenous SALL4 with HDAC1 after peptide treatment (SNU-398); format: binding, human; details: SNU-398, anti-SALL4 IP
# Text: FIGS. 9A-9E: The wild type peptide blocks SALL4 repression of PTEN. (9A) Flow cytometry analysis on SNU-398 cells treated with Pep-1 carrier peptide alone (top panel), wild type peptide alone (middle panel), or Pep-1 carrier+peptide (lower panel). […] (9B) Confocal images of the distribution of FITC-labeled peptide in SNU-398 cells treated as shown in (9A). (9C) The endogenous SALL4 interaction with HDAC is blocked by wild type (wt) but not scrambled (scr) peptide. SALL4 was immunoprecipitated from SNU-398 nuclear extracts (1×10^6 cells) pre-treated with wild type or scrambled peptides as indicated using an anti-SALL4 antibody. Immunoprecipitates were analyzed by Western blot using HDAC1 (top panel) or SALL4 (lower panel) antibodies. […] Equal amount of SALL4 protein was present in all samples. In Lane 4 (“10% input”), 10% of the amount of nuclear extract used in lanes 1-3 was subjected to Western blot analysis without immunoprecipitation. […] Enrichment with control IgG was set at 1.
# Furthermore, whether wt peptide can compete with endogenous SALL4 in interacting with HDAC1 was tested. SNU-398 cells were treated with wt or Scr peptides. […] This effect was not observed with the SNU-398 cells treated with Scr peptide and HDAC1 was still present in the endogenous SALL4 pull-down (FIG. 2).
# Next tested was whether wild type peptide could compete for the interaction of endogenous SALL4 with HDAC1. SNU-398 cells were treated with wild type or scrambled peptides along with the peptide carrier Pep-1.
# [4] = tested on: SNU-398 cells; assay: Subcutaneous transplantation of peptide pre-treated SNU-398 cells into NOD/SCID mice; format: in vivo; details: for subcutaneous tumor volume / size: cells treated in vitro with 20 μM peptide
# Method: Cell viability was determined 72 hours after peptide treatments. Absorbance at 490 nm is directly correlated to cell viability. Wild type functional SALL4 peptide (wt), mutant non-functional SALL4 peptide (Mut.), trichostatin A (TSA), scrambled control peptide (Scr.), wild type peptide+PTEN inhibitor SF1670 (wt+Inh.) were given to the cells at the indicated concentration. PTEN inhibitor concentration was 400 nM. (31C, 31D) Western blot analyses of the effects of peptides on PTEN, AKT, and pAKT expression on SNU-398 (31C) and SNU-387 (31D) cells 72 hours following peptide treatments. 20 μM of wt or Scr. peptide or 100 nM of TSA was used. PTEN inhibitor concentration was 400 nM. (31E) Representative images show NOD/SCID mice transplanted with Scr peptide- and wt peptide-treated SNU-398 cells (left) and the dissected subcutaneous tumors (right). Arrow indicates subcutaneous tumor. (31F) Growth curve of subcutaneous tumors (left panel) and tumor weight of tumors dissected at day 26 post-transplantation (right panel). Results are mean±s.d. n=5; * P<0.05. (31G) Representative images show NOD/SCID mice transplanted with 3 million SNU-398 cells at the left flank and treated intraperitoneally for five consecutive days with 56 mg/kg body weight TAT-Mut. peptide or 60 mg/kg body weight wt peptide (top panel) and the dissected subcutaneous tumors (bottom). (31H) Tumor weight of tumors dissected at day 18 post-transplantation and post-treatment of mice treated intraperitoneally with TAT fusion peptides as described in 5 g. Results are mean±s.d. n=5; * P<0.05.
# To test the therapeutic effect of this peptide in vivo, SNU-398 cells were subjected to in vitro treatment with 20 μM of wt or Scr. peptide and transplanted the peptide-treated cells subcutaneously into the flanks of NOD/SCID mice.
# [5] = tested on: MCF7 cells; assay: Cell viability assay (MTT); format: cell-based; details: MCF7, 48-72 h
# Method: Cell viability assay (MTT) (Invitrogen) was performed according to the manufacturer's instructions. Briefly—10000 cells were seeded in 100 ul medium in 96 well plates. The next day cells were treated as indicated on the figures. At the designated time after the treatment 20 ul of 5 mg/ml MTT solution was added to each well. After 3.5 h incubation at 37 C the medium was removed and the reaction was terminated with a solution of 4 mM HCl, 0.1% Nondet P-40 (NP40) all in isopropanol in dark on orbital shaker for […]. at room temperature. The absorbance was read at 590 nm with a reference filter of 620 nm in Spectromax M3 (ABI) spectrophotometer.
# Multiple cell lines with or without SALL4 expression were chosen to test the biological effect(s) of this wt peptide. Wt or its control (Scr or Mut) peptide was delivered into tumor cells at various concentrations, and their effects on cells were evaluated at 48 or 72 hours post treatment by a MTT assay (Manufacture name). […] Since, as proposed herein, wt peptide can compete with SALL4 and release it from recruiting HDAC complex NuRD, the wt peptide would likely work as a HDAC inhibitor. Therefore, as a positive control, TSA, a broad HDAC inhibitor, was used in the same group of experiments along with the wt and Scr peptide.
Substance,cell viability [1],cell viability ([2]; listed as wild type),cell viability ([2]; listed as wild type peptide),interaction of endogenous SALL4 with HDAC1 [3],subcutaneous tumor volume / size [4],tumor burden (weight post-dissection) ([4]; day 26),cell viability [5],cell viability ([5]; listed as wild type peptide),cell viability [2],interaction of endogenous SALL4 with HDAC1 ([3]; listed as scrambled peptide)
"H-MSRRKQAKPQHI-OH [wt peptide, MSRRKQAKPQHI]",decreased cell viability,no change in cell viability,had no effect,completely abrogated,significantly reduced,the tumor load was reduced,decreased cell viability,displayed the same effect,–,–
"Scr peptide: same 12 amino acids as the wt peptide, but in a scrambled sequence; negative control (SRMRQKIHPKIQ) [reference compound]",remained unaffected,–,–,not observed,grew into larger subcutaneous tumors,–,remained unaffected,–,no change in cell viability,does not affect the interaction
